Experimental data reported in patent US11363819B2 (priority 2017, dated 2022).
Read-outs that look alike come from different tables or passages of the source.

What was measured:
soybean [1] = details: Magnesium chlorate 1600, Aciflurofen 96, combination 1600 + 96 gla/Ha
Experimental: Field trials were carried out to test the synergy of the combination magnesium chlorate and glufosinate-ammonium which is a protoporphyrinogen oxidase-inhibiting herbicides for desiccation in Soybean. The field trials were carried out at various locations in Brazil during spring. The percentage efficacy was calculated after 1, 4 and 7 days of applications.

soybean [2] = details: Magnesium chlorate 1600, Aciflurofen 96, combination 1600 + 96 gla/Ha; remark: listed apart in the source
soybean [3] = type: in vivo; details: Magnesium chlorate 1600, Glufosinate ammonium 240, combination 1600 + 240 mL/Ha
Experimental: (§1) The expected efficacy of a combination of magnesium chlorate and co-herbicide was calculated using the well-established Colby method.
(§2) In the Colby method, the expected (or predicted) response of a combination of herbicides is calculated by taking the product of the observed response for each individual component of the combination when applied alone divided by 100 and subtracting this value from the sum of the observed response for each component when applied alone. An unexpected enhancement in efficacy of the combination is then determined by comparing the observed response of the combination to the expected (or predicted) response as calculated from the observed response of each individual component alone. If the observed response of the combination is greater than the expected (or predicted) response, or stated conversely, if the difference between the observed and expected response is greater than zero, then the combination is said to be synergistic or unexpectedly effective. (Colby, S. R., Weeds, 1967 (15), p. 20-22) The Colby method requires only a single dose of each herbicide applied alone and the mixture of both doses.
(§3) The present inventors have adopted the Coby method to calculate synergy of the combination of defoliants. The % defoliation of individual defoliants was calculated and compared to the expected and observed defoliation efficacy.
(§4) The defoliation activity of the individual defoliants of the invention and their combinations were evaluated on multiple crops including wheat, soybean and cotton. The trial was carried out in Randomized Complete Block (RCB) method, all field trials were conducted using this method. Each trial were replicated four times and conducted under GEP guidelines. Application volumes were varied for each mixture. Such field trials were carried out at various locations so as to generate independent data, the locations were chosen randomly across Brazil.
Field trials were carried out to test the synergy of the combination magnesium chlorate and glufosinate-ammonium which is a ESPS inhibitor herbicide for desiccation in Soybean. The field trials were carried out at various locations in Brazil during spring. The percentage efficacy was calculated after 1 and 4 days of applications. The target crop for defoliation was soybean and the results are recorded in the table below: […]

Triticum aesti = type: in vivo, wheat; details: Magnesium chlorate 3000, Glufosinate ammonium 1500, combination 3000 + 1500 mL/Ha
Experimental: as §1
as §2, with “(Colby, S. R., Weeds, 1967 (15), p. 20-22) The Colby method requires only a single dose of each herbicide applied alone and the mixture of both doses.” left out
as §3
The defoliation activity of the individual defoliants of the invention and their combinations were evaluated on multiple crops including wheat, soybean and cotton. […]

Conyza Canadenesis = type: in vivo
Experimental: as §1, §2, §4
Field trials were carried out to test the synergy of the combination magnesium chlorate and glufosinate-ammonium which is a […] herbicides for controlling Conyza Canadenesis. The field trials were carried out at various locations in Brazil. The percentage efficacy was calculated after 3, 14 and 28 days of applications.

soybean [4] = type: in vivo; details: Magnesium chlorate 2000, Glufosinate ammonium 300, combination 2000 + 300 gla/Ha
Experimental: as §1, §2, §3, §4
Field trials were carried out to test the synergy of the combination magnesium chlorate and glufosinate-ammonium which is a ESPS inhibitor herbicide for desiccation in Soybean. The field trials were carried out at various locations in Brazil during spring. The percentage efficacy was calculated after 1, 4 and 7 days of applications. The target crop for defoliation was soybean and the results are recorded in the table below: […]

[5] = Magnesium chlorate 1200, Aciflurofen 72, combination 1200 + 72 gla/Ha
[6] = Magnesium chlorate 1600, Aciflurofen 96, combination 1600 + 96 gla/Ha
[7] = Magnesium chlorate 2000, Aciflurofen 120, combination 2000 + 120 gla/Ha
[8] = Magnesium chlorate 1200, Glufosinate 180, combination 1200 + 180 gla/Ha
[9] = Magnesium chlorate 1600, Glufosinate 240, combination 1600 + 240 gla/Ha
[10] = Magnesium chlorate 2000, Glufosinate 300, WG formulation 1600 + 300 gla/Ha

Experimental for Cenchrus echinatus: Field trials were carried out to test the synergy of the combination magnesium chlorate and acifluorfen for controlling Cenchrus echinatus. The field trials were carried out at various locations in Brazil. The percentage efficacy was calculated after 3, 14 and 21 days of applications.
Experimental for Digitaria insularis: Field trials were carried out to test the synergy of the combination magnesium chlorate and acifluorfen for controlling Digitaria insularis. The field trials were carried out at various locations in Brazil. The percentage efficacy was calculated after 3, 14 and 28 days of applications.
Experimental for Euphorbia heterophylla: Field trials were carried out to test the synergy of the combination magnesium chlorate and acifluorfen for controlling Euphorbia heterophylla. The field trials were carried out at various locations in Brazil. The percentage efficacy was calculated after 3, 14 and 28 days of applications.

## O=C(O)c1cc(Oc2ccc(C(F)(F)F)cc2Cl)ccc1[N+](=O)[O-] [Aciflurofen, acifluorfen]
Cenchrus echinatus; [5]
  % control at 3 DAA Actual: 13%
  % control at 14 DAA Actual: 30%
  % control at 21 DAA Actual: 50%
Cenchrus echinatus; [6]
  % control at 3 DAA Actual: 17.7%
  % control at 14 DAA Actual: 50%
  % control at 21 DAA Actual: 74.3%
Cenchrus echinatus; [7]
  % control at 3 DAA Actual: 18.3%
  % control at 14 DAA Actual: 50%
  % control at 21 DAA Actual: 61.7%
Digitaria insularis; [5]
  % control at 3 DAA Actual: 7.7%
  % control at 14 DAA Actual: 38.3%
  % control at 28 DAA Actual: 81.7%
Digitaria insularis; [6]
  % control at 3 DAA Actual: 28.3%
  % control at 14 DAA Actual: 78.3%
  % control at 28 DAA Actual: 98.7%
Digitaria insularis; [7]
  % control at 3 DAA Actual: 31.7%
  % control at 14 DAA Actual: 87%
  % control at 28 DAA Actual: 95.3%
Soybean [1]
  desiccation in soybean at 1 DAA Actual: 0%
  desiccation in soybean at 4 DAA Actual: 11.7%
Euphorbia heterophylla; [5]
  % control at 3 DAA Actual: 45%
  % control at 14 DAA Actual: 28.3%
  % control at 28 DAA Actual: 13.3%
Euphorbia heterophylla; [6]
  % control at 3 DAA Actual: 56.7%
  % control at 14 DAA Actual: 35.0%
  % control at 28 DAA Actual: 31.7%
Euphorbia heterophylla; [7]
  % control at 3 DAA Actual: 63.3%
  % control at 14 DAA Actual: 50%
  % control at 28 DAA Actual: 33.3%
Soybean [2]
  desiccation in soybean at 3 DAA Actual: 91.0%
  desiccation in soybean at 14 DAA Actual: 10%

## [Mg+2].[O-][Cl+2]([O-])[O-].[O-][Cl+2]([O-])[O-] [Magnesium chlorate]
Soybean [3]
  desiccation in soybean at 1 DAA Actual: 21.7%
  desiccation in soybean at 4 DAA Actual: 53.3%
Triticum aesti
  Defoliation in Triticum aesti at 3 DAA Actual: 68%
Conyza Canadenesis; [8]
  % control at 3 DAA Actual: 50%
  % control at 14 DAA Actual: 51.7%
  % control at 28 DAA Actual: 30%
Conyza Canadenesis; [9]
  % control at 3 DAA Actual: 55%
  % control at 14 DAA Actual: 47.7%
  % control at 28 DAA Actual: 35%
Conyza Canadenesis; [10]
  % control at 3 DAA Actual: 40%
  % control at 14 DAA Actual: 33.3%
  % control at 28 DAA Actual: 11.7%
Soybean [4]
  desiccation in soybean at 1 DAA Actual: 30%
  desiccation in soybean at 4 DAA Actual: 56.7%
  desiccation in soybean at 7 DAA Actual: 58.3%
Cenchrus echinatus; [5]
  % control at 3 DAA Actual: 10.7%
  % control at 14 DAA Actual: 14.3%
  % control at 21 DAA Actual: 10.7%
Cenchrus echinatus; [6]
  % control at 3 DAA Actual: 11.3%
  % control at 14 DAA Actual: 23.3%
  % control at 21 DAA Actual: 12.3%
Cenchrus echinatus; [7]
  % control at 3 DAA Actual: 14%
  % control at 14 DAA Actual: 30%
  % control at 21 DAA Actual: 22.7%
Digitaria insularis; [5]
  % control at 3 DAA Actual: 6%
  % control at 14 DAA Actual: 9.3%
  % control at 28 DAA Actual: 41.7%
Digitaria insularis; [6]
  % control at 3 DAA Actual: 6%
  % control at 14 DAA Actual: 11.7%
  % control at 28 DAA Actual: 48.3%
Digitaria insularis; [7]
  % control at 3 DAA Actual: 7%
  % control at 14 DAA Actual: 16%
  % control at 28 DAA Actual: 31.7%
Soybean [1]
  desiccation in soybean at 1 DAA Actual: 21.7%
  desiccation in soybean at 4 DAA Actual: 53.3%
Euphorbia heterophylla; [5]
  % control at 3 DAA Actual: 31.7%
  % control at 14 DAA Actual: 40%
  % control at 28 DAA Actual: 23.3%
Euphorbia heterophylla; [6]
  % control at 3 DAA Actual: 33.3%
  % control at 14 DAA Actual: 35%
  % control at 28 DAA Actual: 16.7%
Euphorbia heterophylla; [7]
  % control at 3 DAA Actual: 40%
  % control at 14 DAA Actual: 33.3%
  % control at 28 DAA Actual: 11.7%
Soybean [2]
  desiccation in soybean at 3 DAA Actual: 84.3%
  desiccation in soybean at 14 DAA Actual: 60%

## CP(=O)(O)CCC(N)C(=O)O (centres unmarked) [Glufosinate ammonium, glufosinate-ammonium]
Soybean [3]
  desiccation in soybean at 1 DAA Actual: 0%
  desiccation in soybean at 4 DAA Actual: 18.3%
Triticum aesti
  Defoliation in Triticum aesti at 3 DAA Actual: 78%
Conyza Canadenesis; [8]
  % control at 3 DAA Actual: 13.3%
  % control at 14 DAA Actual: 61.7%
  % control at 28 DAA Actual: 58.3%
Conyza Canadenesis; [9]
  % control at 3 DAA Actual: 13.3%
  % control at 14 DAA Actual: 90.7%
  % control at 28 DAA Actual: 95%
Conyza Canadenesis; [10]
  % control at 3 DAA Actual: 63.3%
  % control at 14 DAA Actual: 50%
  % control at 28 DAA Actual: 33.3%
Soybean [4]
  desiccation in soybean at 1 DAA Actual: 0%
  desiccation in soybean at 4 DAA Actual: 30%
  desiccation in soybean at 7 DAA Actual: 63.3%
